# System: enhancer region of cytochrome 1A1 gene
# Assay: Detection of nitrogen monoxide (NO.) having responded to carcinogenicity by iNOS vector pXRE-SV40-NOS2 (DAF2-DA fluorescence)
# Type: cell-based, mouse
# Conditions: Neuro2a transfected with pXRE-SV40-NOS2; 1.0 μM, 24 hours; compared with DMSO; inverted fluorescence microscope (FIG. 3A, 3B)
# Source text: An enhancer region responsive to a carcinogenic substance was incorporated in the iNOS vector: pSV40-NOS2. The enhancer region of cytochrome 1A1 gene responsive to a carcinogenic substance (benzopyrene) (SEQ ID NO: 4) was amplified by PCR from a mouse genome. The 5′ terminal of the amplified enhancer region was phosphorylated with T4 polynucleotide kinase, and ligated using T4 ligase to pSV40-NOS2 having been digested with restriction enzyme Sma I and having its 5′ terminal dephosphorylated with alkali phosphatase, thereby obtaining pXRE-SV40-NOS2 (FIG. 2). Using this vector, the correlation of the activation of the enhancer region by a carcinogenic substance with the amount of nitrogen monoxide (NO.) synthesized by iNOS was studied.
# Mouse neuroblastoma Neuro2a (American Type Cell Culture) was seeded on a 24-well plate at a density of 8.0×10^4 cells/well, and using DMEM/F12 medium (DF1:1 medium) supplemented with 10% fetal calf serum (FCS), cultured overnight in a 5% CO2 atmosphere at 37° C. […] Two hours later, the cells were washed with phosphate buffer (PBS) twice, and the fluorescence by the reaction product of DAF-2DA and nitrogen monoxide (NO.) (DAF-2T, excitation wavelength: 495 nm, fluorescence wavelength: 515 nm) was observed by means of an inverted fluorescence microscope.
smiles,measurement,value
c1ccc2c(c1)c1cccc3ccc4cccc2c4c31 [benzopyrene],fluorescence by the reaction product of DAF-2DA and nitrogen monoxide (NO.),induction of fluorescence

# — patent US8546079B2, “Reporter gene construct, assay kit and detection method” (Kabushiki Kaisha Toshiba, priority 2010, dated 2013)
